From the METLIN SMRT retention time set (Domingo-Almenara et al. 2019)

Assay: gradient 5% acetonitrile 3 min, to 50% in 2 min, to 85% in 15 min, held 3 min, 100 µL/min
Conditions: column: Zorbax Extend-C18 2.1 x 50 mm; eluents: water / acetonitrile, 0.1% formic acid
How it was run: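 Retention time was recorded from adduct peaks, which were picked computationally and each inspected manually. Pure standards ran in mixtures of ~100 molecules on HPLC coupled to a quadrupole time-of-flight mass spectrometer, in positive and negative ionization mode, through a Zorbax Extend-C18 column (2.1 × 50 mm, 1.8 μm) at 100 μL/min. Eluents were water and acetonitrile, each with 0.1% formic acid.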

Compound | RP-LC retention time
CC1(C(=O)NC2CCCCCCC2)CN(S(C)(=O)=O)CC(=O)N1Cc1ccc(F)cc1 (stereo not given) | 740 s
CC1(O)CCOC2(CCN(C(=O)C3CCCC3)CC2)C1 (stereo not given) | 662 s
O=S(=O)(Cc1ccccc1)N1CCCC(Cc2nncn2CC2CC2)C1 (stereo not given) | 631 s
O=C(NC1CCCC1)c1nnc(-c2ccc(S(=O)(=O)N3CCCC3)cc2)o1 | 855 s
OC1(c2ccccn2)CCOC2(CCN(Cc3ccc(F)cc3Cl)CC2)C1 (stereo not given) | 570 s
O=C(COc1cccc(Cl)c1)Nc1nc(-c2ccccc2)cs1 | 1110 s
CCCCS(=O)(=O)N1CCC(c2cc(N)on2)CC1 | 706 s
CC(C)CN1CCN(Cc2nc(-c3ccc(N4CCCCC4)nc3)no2)CC1 | 596 s
CCNC(=O)N1CCC(c2noc(-c3ccccn3)n2)C1 (stereo not given) | 594 s
Cn1ncc2c3ccccc3n(CCCC(=O)NCCc3ccccc3)c2c1=O | 845 s
O=S(=O)(Cc1ccccc1)N1CCCCC1c1noc(COCC2CC2)n1 (stereo not given) | 1050 s
CCNS(=O)(=O)c1cccnc1Nc1cccc(Br)c1 | 1040 s
CC(=O)Nc1c(C)nn(-c2ccccc2)c1N1CCC(C(=O)NCC2COCCO2)CC1 (stereo not given) | 605 s
COc1cc(NS(=O)(=O)c2cc3n(c2)CCCNC3=O)cc(OC)c1 | 639 s
COc1ccc(CNC(=O)CS(=O)(=O)c2cccs2)cc1 | 676 s
CCc1nc2cc(-c3noc(/C=C/c4ccc(OC)c(OC)c4)n3)ccc2o1 | 1140 s
O=C(Nc1c(-c2ccccc2)nc2ccccn12)c1ccc2ccccc2c1 | 720 s
O=C(NCc1ccc(F)cc1F)c1ccc(Cn2c(C(F)(F)F)nc3cccnc32)cc1 | 925 s
O=C(CCc1c[nH]c2ccccc12)N1[C@H]2CC[C@@H]1c1cnc(-c3ccccc3)nc1C2 | 884 s
COc1ccc(-c2cc(N3CCCC(C(=O)Nc4cccc5cccnc45)C3)ncn2)cc1 (stereo not given) | 629 s
CCN(C(=O)CCc1ccccc1)c1nc(-c2ccccc2)cs1 | 1320 s
Cc1noc([C@@H]2CN(S(=O)(=O)c3cccs3)C[C@H]2C(N)=O)n1 | 658 s
CCOc1ccccc1-c1noc(Cn2ncn3nc(-c4ccc(F)cc4)cc3c2=O)n1 | 1080 s
CCN(c1ccccc1)S(=O)(=O)c1cc(-c2[nH]ncc2C(=O)N2CCCCC2)oc1C | 822 s
CCCN(CC(=O)N1CCc2sccc2C1COc1ccccc1OC)C(=O)C1CC1 (stereo not given) | 922 s

Compound | RP-LC retention time
FCCN(CCF)c1cccc(Cl)c1 | 1060 s
Cc1oc2ccn(Cc3ccc(F)cc3)c(=O)c2c1C(=O)N1CCCCC1 | 834 s
O=C(Cc1ccc(F)cc1)NCCNc1cc(-n2cccn2)ncn1 | 652 s
CC(=O)Nc1nc(-c2ccc(S(=O)(=O)N3CCN(c4ccccc4)CC3)cc2)cs1 | 960 s
CN(C)c1ccc(-c2nc3cnccn3c2Nc2ccccc2)cc1 | 745 s
N[C@@H](Cc1ccc2oc3cc(=O)c4ccccc4c-3nc2c1)C(=O)O | 611 s
COC(=O)N1CCN(C(=O)Cc2ccc(Cl)c(Cl)c2)C(CN2CCCC2)C1 (stereo not given) | 688 s
Cc1noc(C)c1CC(=O)N1CCc2nn(CC3CC3)c(=O)n2CC1 | 626 s
NC(=O)c1c(NC(=O)C2=COCCO2)sc2c1CCCCC2 | 987 s
O=C(COc1ccccc1F)NC1CCCC(OC(=O)Nc2ccccc2)C1 (stereo not given) | 872 s
O=C(NCCc1cccnc1)c1cn(-c2cc(N3CCOCC3)ncn2)cn1 | 565 s
Oc1ccc(-c2nc3ccc(Cl)cn3c2Nc2ccc3c(c2)OCCO3)cc1 | 748 s
COc1ccccc1N1CCN(CCN2C(=O)c3ccccc3C(C)(C)C2=O)CC1 | 787 s
CCCN1C(=O)c2c(C(=O)NCc3ccccc3C)ncn2CC1(C)C(=O)NCCC(C)C (stereo not given) | 883 s
CC1(CNS(=O)(=O)c2ccc(F)c(F)c2)CCOCC1 | 810 s
O=C(c1ccco1)N1CCN(S(=O)(=O)c2ccc(-c3cc(C(F)(F)F)on3)o2)CC1 | 951 s
COc1ccc(-c2nnc(Cc3nc(-c4cccc(Cl)c4)no3)o2)cc1 | 1020 s
O=C1NC(=O)N2CCSC2(Cc2ccccc2)N1 (stereo not given) | 670 s
COc1ccc(-c2ncc(C(=O)Nc3ccc(OC)c(Cl)c3)c(-c3ccncc3)n2)cc1 | 902 s
COc1ccc(C(=O)N2[C@H]3CC[C@@H]2c2cnc(-c4ccc(F)cc4)nc2C3)cn1 | 892 s
COC(=O)Cn1nc2ccc(S(=O)(=O)N3CCC(C)CC3)cn2c1=O | 819 s
O=C([C@@H]1C[C@H](F)CN1C(=O)c1ccccc1F)N1CCCCC1 | 677 s
Cc1ccccc1CNC(=O)CCc1c(-c2ccc(Br)cc2)nc2ccccn12 | 722 s
O=S(=O)(Cc1ccccc1)N1CCC(OCCOCc2ccccc2)CC1 | 1040 s
O=C(c1cccc(Nc2nc3ccccc3n3nnnc23)c1)N1CCN(c2ccccn2)CC1 | 655 s

The remaining lines, values ahead:

RP-LC retention time | Compound
752 s | Cc1ccc2c(c1)C(=O)NC1(CCN(C(=O)c3cc(F)cc(F)c3)CC1)N2C
961 s | Cc1ccc(NC(=O)c2cn(-c3cc(N4CCCC4)ncn3)cn2)c(C)c1
652 s | CCOC(=O)c1cc(C)n(CC(=O)N2CCOCCNC(=O)CC2)c1C
1320 s | Cc1ccc(NC(=O)c2cc(C(C)(C)C)n3nccc3n2)cc1
756 s | Cc1cc(C)n(-c2cc(NC(C)C)ncn2)n1
1060 s | O=C(Cn1nc(N2CCSCC2)c2ccccc2c1=O)Nc1ccc(Br)cc1F
938 s | CC(=O)c1cccc(NC(=O)N2C[C@H](c3nc(-c4ccccc4)no3)[C@@H](C)C2)c1
856 s | COc1ccc(NC(=O)Cn2c(C)cc(-c3nnc(C4CC4)o3)c2C)cc1Cl
673 s | CC(C)NC(=O)c1ncn2c1C(=O)N(C1CC1)C(C)(C(=O)NCc1ccc(F)cc1)C2 (stereo not given)
680 s | O=C(O)c1nnn(-c2cccc(Cl)c2)c1-c1cccnc1
668 s | Cc1nc2ccc(Cl)cn2c(=O)c1NC(=O)c1ccc([N+](=O)[O-])cc1Cl
769 s | Cc1nc(CCNS(=O)(=O)c2ccc(Cl)cc2)no1
968 s | CCS(=O)(=O)N1CC(=O)N(c2ccc(C)c(F)c2)C(C)(C(=O)NC2CCCCCC2)C1 (stereo not given)
969 s | Cc1cccc(-c2noc(CSc3nccn3-c3ccccc3)n2)c1
1160 s | CCOc1ccc(-c2cc3c(=O)n(Cc4nc(-c5ccc(C)cc5)no4)ccn3n2)cc1
922 s | C=CCN1C(=O)COc2ccc(-c3nc(NC(=O)C(C)C)sc3C)cc21
506 s | Cc1nc([C@@H]2CN(C(=O)CCc3nc4ccccc4[nH]3)C[C@H]2C(N)=O)n[nH]1
722 s | CC(=O)N1CCCn2nc(-c3cccc(F)c3)cc2C1
706 s | NC(=O)c1ccccc1NC(=O)C1CN(c2nc3c(F)cccc3s2)C1
1000 s | COc1ccc(OC)c(NC(=O)C(=O)c2cccn2C)c1

RP-LC retention time | Compound
689 s | Cc1ccc(F)c(-n2nnc(C(=O)O)c2C)c1
829 s | Cc1ccc(S(=O)(=O)Nc2ccc(Nc3ccc(-n4cccn4)nn3)cc2)c(C)c1
733 s | CCn1c(C)c(CN2CCC(C(=O)NCc3ccc(C)cc3)CC2)c2ccccc21
798 s | CCNC(=O)N1CCc2c([nH]c3ccc(C)cc23)C12C(=O)N(C)c1ccccc12 (stereo not given)
1040 s | COC(=O)c1ccc2c(=O)n(-c3cccc(Cl)c3)c(N3CCCC3)nc2c1
741 s | O=C(Cc1cccc(Cl)c1)NC1CCN(c2cc(-c3ccc(F)cc3)[nH]n2)C1 (stereo not given)
776 s | CCn1ccc2c(cc(C(=O)Nc3ccc(F)cc3Cl)n2C)c1=O
626 s | O=S(=O)(Cc1ccccc1F)N1CCc2nnc(C3CC3)n2CC1
656 s | CSc1nnc(-c2nn(C)c3c2CN(C(=O)c2ccc(F)cc2)CC3)n1C
778 s | COc1ccc2[nH]cc(CCNC(=O)c3ccc(F)cc3)c2c1
800 s | O=C(Nc1cccc(F)c1)C1CCc2nc(N3CCCCC3)ncc2C1 (stereo not given)
868 s | Cc1noc(-c2ccc(OC3CN(C(=O)c4cc(F)ccc4F)C3)cc2)n1
919 s | C[C@@H]1c2ccccc2CCN1C(=O)c1ccccc1F
859 s | Cc1nn(Cc2ccc(C(=O)NCC3CC3)cc2)c(C)c1S(=O)(=O)N1CCCCC1
913 s | COc1ccc(NC(=O)c2nc(C)oc2C)c(OC)c1
928 s | CCOc1ccccc1NC(=O)Cn1ccc2ccc(-c3nnc(CC)o3)cc21
571 s | Cc1cc(C)cc(NC(=O)CN2CCC(C(=O)Nc3ccc(C(N)=O)cc3)CC2)c1
614 s | O=C(Nc1cc(F)c(F)c(F)c1)N1CCc2nc[nH]c2C1
846 s | C=CCN1C(=O)COc2ccc(-c3nc(NC(=O)CC)sc3C)cc21
852 s | CC(C)CC(=O)N1CCc2c(c(-c3nnc(-c4ccccc4Cl)o3)nn2C)C1
